Data: patent US20250002695A1, “COMPOSITIONS COMPRISING CATIONIC ALPHA-1,6-GLUCAN DERIVATIVE AND ALPHA-1,3-GLUCAN” (Nutrition & Biosciences USA 4, Inc., priority 2021, published 2025)
≈ marks a conversion by molar mass, not a printed value. Where two headings read alike, the source gives them in different places.

Experiments:
Test in all cases: Minimum Inhibitory Concentration (MIC) test
Format in all cases: cell-based
[1] = tested on: Staphylococcus epidermidis (ATCC 12228); details: read-out: Minimum Inhibitory Concentration
Description: (§1) Antimicrobial activity assessment of alpha-1,6-glucan ether compounds herein and other compounds were carried out using a standard MIC protocol. Each test compound was evaluated in two sets, one at 50-5000 ppm (high MIC actives) and the other at 3.125-100 ppm (low MIC actives). All active samples, with the exception of chitosan, were dissolved in DI water at a concentration of 1% w/v for the […] set; chitosan was instead dissolved in water acidified to pH 3.5 with hydrochloric acid. Each test compound was then serially diluted to concentrations of 0.4%, 0.2%, 0.1%, 0.04%, 0.02% and 0.01% (w/v). For the 3.125-100 ppm set, all test compounds were prepared similarly at a concentration 0.1% w/v, and then serially diluted to concentrations of 0.05%, 0.025%, 0.0125%, 0.00625% and 0.003125% (w/v). Bacteria inocula were prepared by diluting overnight cultures 1:20 in trypticase soy broth media (TSB). Yeast and mold were prepared by diluting overnight culture or monthly stock (1×10^8 cells per mL) 1:20 in potato dextrose broth media (PDB). 96-well plates were used in this test. First, 180 μL of plating media was added to each well. Next, each well received 20 μL water (control) or test compound at a specified concentration according to concentration range to be tested. Each sample was tested in triplicate. Lastly, each well received 20 μL of bacteria or fungi inoculum. Bacterial plates were incubated at 30° C. for 24 hours. Yeast and mold plates were incubated at 25° C.; yeast plates were incubated for 24 hours and mold plates were incubated for 7 days.

[2] = tested on: Pseudomonas putida (ATCC 49128); details: read-out: Minimum Inhibitory Concentration
Description: as §1

[3] = tested on: Pseudomonas aeruginosa (ATCC 15442); details: read-out: Minimum Inhibitory Concentration
Description: as §1

[4] = tested on: Escherichia coli (ATCC 8739); details: read-out: Minimum Inhibitory Concentration
Description: as §1

[5] = tested on: Aspergillus brasiliensis (ATCC 16404); details: ATCC16404, 168 h, read-out: Minimum Inhibitory Concentration
Description: as §1

[6] = tested on: Staphylococcus aureus (ATCC 6538); details: read-out: Minimum Inhibitory Concentration
Description: as §1

[7] = tested on: Enterobacter gergoviae (ATCC 33028); details: Pluralibacter gergoviae, read-out: Minimum Inhibitory Concentration
Description: as §1

[8] = tested on: Pseudomonas aeruginosa (ATCC 9027); details: read-out: Minimum Inhibitory Concentration
Description: as §1

[9] = tested on: Candida albicans (ATCC 10231); details: read-out: Minimum Inhibitory Concentration
Description: as §1

[10] = tested on: Burkholderia cepacia (ATCC 25416); details: read-out: Minimum Inhibitory Concentration
Description: as §1

[11] = tested on: Klebsiella pneumoniae (ATCC 13883); details: read-out: Minimum Inhibitory Concentration
Description: as §1

## CCCCCCCCCCCC[N+](C)(C)C.[Cl-] [Comp. 11, Dodecyltrimethylammonium chloride]
[1]; ATCC12228, 24 h
  MIC: 100 µg/mL
[2]; ATCC49128, 24 h
  MIC: 500 µg/mL
[3]; ATCC15442, 24 h
  MIC: 500 µg/mL
[4]; ATCC8739, 24 h
  MIC: 200 µg/mL
[5]
  MIC: 1000 µg/mL
[6]; ATCC6538, 24 h
  MIC: 200 µg/mL
[7]; ATCC33028, 24 h
  MIC: 500 µg/mL
[8]; ATCC9027, 24 h
  MIC: 500 µg/mL
[9]; ATCC10231, 24 h
  MIC: 200 µg/mL
[10]; ATCC25416, 24 h
  MIC: 1000 µg/mL
[11]; ATCC13883, 24 h
  MIC: 500 µg/mL

## CCCCCCCCCCCC(=O)N[C@@H](CCCNC(=N)N)C(=O)OCC [Comp. 13, Lauroyl arginine ethyl ester]
[1]; ATCC12228, S. epidermidis ATCC 12228, 30° C., 24 hours
  MIC: 12.5 µg/mL (≈ 32.5 µM)
[2]; ATCC49128, P. putida ATCC 49128, 30° C., 24 hours
  MIC: 25 µg/mL (≈ 65 µM)
[3]; ATCC15442, P. aeruginosa ATCC 15442, 30° C., 24 hours
  MIC: 50 µg/mL (≈ 130 µM)
[4]; ATCC8739, E. coli ATCC 8739, 30° C., 24 hours
  MIC: 50 µg/mL (≈ 130 µM)
[5]; A. brasiliensis ATCC 16404, 25° C., 7 days
  MIC: 100 µg/mL (≈ 260 µM)
[6]; ATCC6538, S. aureus ATCC 6538, 30° C., 24 hours
  MIC: 12.5 µg/mL (≈ 32.5 µM)
[7]; ATCC33028, E. gergoviae ATCC 33028, 30° C., 24 hours
  MIC: 100 µg/mL (≈ 260 µM)
[8]; ATCC9027, P. aeruginosa ATCC 9027, 30° C., 24 hours
  MIC: 50 µg/mL (≈ 130 µM)
[9]; ATCC10231, C. albicans ATCC 10231, 25° C., 24 hours
  MIC: 100 µg/mL (≈ 260 µM)
[10]; ATCC25416, B. cepacia ATCC 25416, 30° C., 24 hours
  MIC: 100 µg/mL (≈ 260 µM)
[11]; ATCC13883, K. pneumoniae ATCC 13883, 30° C., 24 hours
  MIC: 50 µg/mL (≈ 130 µM)
